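Interpolation was linear, between the two tested concentrations surrounding the appropriate level; five concentrations were tested over 48 hours in 96-well plates. GI50 is the concentration that inhibits growth by half. TGI: total growth inhibition.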
What was measured:
Test in all cases: NCI tumour cell line growth inhibition, 48 h
KM12 colon = tested on: KM12 colon
MDA-MB-435 = tested on: MDA-MB-435
SN12C renal = tested on: SN12C renal
OVCAR-8 ovarian = tested on: OVCAR-8 ovarian
PC-3 prostate = tested on: PC-3 prostate
OVCAR-4 ovarian = tested on: OVCAR-4 ovarian
OVCAR-5 ovarian = tested on: OVCAR-5 ovarian
IGROV1 ovarian = tested on: IGROV1 ovarian
SK-MEL-2 melanoma = tested on: SK-MEL-2 melanoma
DU-145 prostate = tested on: DU-145 prostate

Row | Structure (SMILES) | GI50 (KM12 colon) [µM] | TGI (KM12 colon) [µM] | GI50 (MDA-MB-435) [µM] | TGI (MDA-MB-435) [µM] | TGI (SN12C renal) [µM] | GI50 (OVCAR-8 ovarian) [µM] | TGI (OVCAR-8 ovarian) [µM] | GI50 (PC-3 prostate) [µM] | TGI (PC-3 prostate) [µM] | GI50 (OVCAR-4 ovarian) [µM] | TGI (OVCAR-4 ovarian) [µM] | GI50 (OVCAR-5 ovarian) [µM] | TGI (OVCAR-5 ovarian) [µM] | GI50 (IGROV1 ovarian) [µM] | TGI (IGROV1 ovarian) [µM] | GI50 (SK-MEL-2 melanoma) [µM] | TGI (SK-MEL-2 melanoma) [µM] | GI50 (DU-145 prostate) [µM] | TGI (DU-145 prostate) [µM] | GI50 (SN12C renal) [µM]
1 | COc1cc(C(=O)/C=C/c2c(C)n([O-])c3ccc(C)cc3[n+]2=O)cc(OC)c1OC | 13 | 27.6 | 6.47 | > 63.4 | 35.7 | 3.46 | > 56.4 | 12.9 | > 59.3 | 6.68 | 24 | 12.8 | 29.6 | 3.8 | 13 | 15 | 31.2 | 7.88 | 21.1 | 
2 | COc1cc(NS(C)(=O)=O)ccc1Nc1c2ccc([N+](=O)[O-])cc2nc2c(C)cccc12 | 0.814 | 8.15 | 1.67 | 15 | 9.26 | 1.08 | 14 | 1.1 | 9.1 | 3.32 | 19.1 | 2.87 | 14.4 | 1.45 | 9.36 | 4.07 | 16.1 | 0.133 | 10.7 | 0.175
3 | COc1ccc(OC)c(/C=N/NC(=O)Cc2csc3nc(-c4ccc(Br)cc4)cn23)c1 | 8.84 | > 100 | 3.96 | 16.2 | 49.4 | 11.6 | 38.2 | 13.5 | 93.8 | 28.4 | > 100 | 50.2 | > 100 | 4.02 | 26.7 | 89.7 | > 100 | 17.9 | 48 | 20.7
4 | COC(=O)CCC(=O)C(=O)OC | 27900 |  | 62100 |  | 62100 | 63200 |  | 27800 | 84500 | 65000 |  | 26100 |  | 19000 | 76800 | 19700 | 41400 | 31700 |  | 21500
5 | CC12CCC3C(CCC4Cc5[nH]c6ccccc6c5CC43C)C1CCC2O (configuration not stated) | 2.8 | 8.61 | 0.241 | 0.717 | > 100 | 4.1 | > 100 | 3.13 | > 100 | 1.35 | > 100 | > 100 | > 100 | 0.768 | > 100 | 4.28 | > 100 | 1.69 | 5.5 | 4.09
6 | CCCCC[C@H](O)/C=C/[C@@H]1[C@@H](C/C=C\CCCC(=O)O)[C@@H](O)C[C@H]1O | > 100 | > 100 | > 100 | > 100 | > 100 | > 100 | > 100 | > 100 | > 100 | > 100 | > 100 | > 100 | > 100 | > 100 | > 100 | > 100 | > 100 | > 100 | > 100 | > 100
7 | CCSCC1CC(O)(c2ccccc2)C(c2ccccc2)C(c2ccc(Cl)cc2)O1 (configuration not stated) | 2.56 | 6.92 | 1.74 | 3.84 | 3.13 | 2.27 | 5.37 | 1.48 | 4.86 | 1.66 | 4.35 | 1.82 | 3.54 | 2.01 | 4.88 | 1.73 | 3.5 | 1.99 | 4.4 | 1.52
8 | CCc1nc(N)nc(N)c1-c1ccc(NCCN)c([N+](=O)[O-])c1 |  | > 100 |  | > 100 | > 100 |  | > 100 |  | > 100 |  | > 100 |  | > 100 |  | > 100 |  | > 100 |  | > 100 | 
9 | O=C(Nc1ccc(Cl)c(Cl)c1)c1cccc(NC2=C(Cl)C(=O)N(Cc3ccccc3)C2=O)c1 | 69 | > 100 | 35.7 | > 100 | > 100 | 31.6 | 89.5 | 27.2 | > 100 | 48.3 | > 100 | > 100 | > 100 | 21.1 | 91.1 | 23.5 | 56.5 | 20.6 | > 100 | 52.9
10 | Cc1cc2nc(C(C)C(=O)c3ccc(Cl)cc3)c(=O)[nH]c2cc1C (configuration not stated) |  | > 100 |  | 49.6 | > 100 |  | > 100 |  | > 100 |  | > 100 |  | > 100 |  | > 100 |  | > 100 |  | > 100 | 
11 | O=C(O)C/C(=C\c1ccco1)C(=O)O |  | > 100 |  | > 100 | > 100 |  | > 100 |  | > 100 |  | > 100 |  | > 100 |  | > 100 |  | > 100 |  | > 100 | 
12 | COc1ccc2oc(=O)cc(C(c3ccc[nH]3)c3ccc[nH]3)c2c1 | 0.104 | 11.3 | 0.208 | 0.485 | 15.8 | 0.116 | 14.2 | 0.108 | 15.5 | 0.303 | 26.3 | 0.128 | 19.9 | 0.106 | 17.6 | 0.616 | 13.2 |  | 12.8 | 0.148
13 | COc1c(C=O)c2c(c(OC)c1OC)-c1ccc(OC)c(=O)cc1[C@@H](NC(C)=O)CC2 |  | 0.632 |  | 24.6 | > 100 |  | > 14.4 |  | > 100 |  | > 100 |  | > 100 |  | 76.6 |  | 2.57 |  | > 100 | 
14 | O=C(NC1CCN(Cc2ccccc2)CC1)c1cc(-c2ccncc2)nc2ccc(Cl)cc12 | 24.1 | > 100 | 15 | > 88.7 | > 100 | 22.5 | > 72.9 | 13.6 | > 100 | 10.7 | 59.6 | 13.9 | > 100 | 18.5 | > 100 | 29.8 | 87.1 | 20.1 | 63.1 | 35.6

Reference: PubChem BioAssay (NCI)
